Earlier results as cited in US20250152568A1, “METHODS OF TREATING COMPLEX REGIONAL PAIN SYNDROME” (Aisa Pharma, Inc., priority 2022, published 2025).

Target: Nav 1.7 sodium channel (Homo sapiens, UniProt Q15858)
Settings: 20 mg dose of cilnidipine vs 1800 mg dose of gabapentin; see WO2021/178903

Sequence of Nav 1.7 sodium channel (Q15858 whole entry): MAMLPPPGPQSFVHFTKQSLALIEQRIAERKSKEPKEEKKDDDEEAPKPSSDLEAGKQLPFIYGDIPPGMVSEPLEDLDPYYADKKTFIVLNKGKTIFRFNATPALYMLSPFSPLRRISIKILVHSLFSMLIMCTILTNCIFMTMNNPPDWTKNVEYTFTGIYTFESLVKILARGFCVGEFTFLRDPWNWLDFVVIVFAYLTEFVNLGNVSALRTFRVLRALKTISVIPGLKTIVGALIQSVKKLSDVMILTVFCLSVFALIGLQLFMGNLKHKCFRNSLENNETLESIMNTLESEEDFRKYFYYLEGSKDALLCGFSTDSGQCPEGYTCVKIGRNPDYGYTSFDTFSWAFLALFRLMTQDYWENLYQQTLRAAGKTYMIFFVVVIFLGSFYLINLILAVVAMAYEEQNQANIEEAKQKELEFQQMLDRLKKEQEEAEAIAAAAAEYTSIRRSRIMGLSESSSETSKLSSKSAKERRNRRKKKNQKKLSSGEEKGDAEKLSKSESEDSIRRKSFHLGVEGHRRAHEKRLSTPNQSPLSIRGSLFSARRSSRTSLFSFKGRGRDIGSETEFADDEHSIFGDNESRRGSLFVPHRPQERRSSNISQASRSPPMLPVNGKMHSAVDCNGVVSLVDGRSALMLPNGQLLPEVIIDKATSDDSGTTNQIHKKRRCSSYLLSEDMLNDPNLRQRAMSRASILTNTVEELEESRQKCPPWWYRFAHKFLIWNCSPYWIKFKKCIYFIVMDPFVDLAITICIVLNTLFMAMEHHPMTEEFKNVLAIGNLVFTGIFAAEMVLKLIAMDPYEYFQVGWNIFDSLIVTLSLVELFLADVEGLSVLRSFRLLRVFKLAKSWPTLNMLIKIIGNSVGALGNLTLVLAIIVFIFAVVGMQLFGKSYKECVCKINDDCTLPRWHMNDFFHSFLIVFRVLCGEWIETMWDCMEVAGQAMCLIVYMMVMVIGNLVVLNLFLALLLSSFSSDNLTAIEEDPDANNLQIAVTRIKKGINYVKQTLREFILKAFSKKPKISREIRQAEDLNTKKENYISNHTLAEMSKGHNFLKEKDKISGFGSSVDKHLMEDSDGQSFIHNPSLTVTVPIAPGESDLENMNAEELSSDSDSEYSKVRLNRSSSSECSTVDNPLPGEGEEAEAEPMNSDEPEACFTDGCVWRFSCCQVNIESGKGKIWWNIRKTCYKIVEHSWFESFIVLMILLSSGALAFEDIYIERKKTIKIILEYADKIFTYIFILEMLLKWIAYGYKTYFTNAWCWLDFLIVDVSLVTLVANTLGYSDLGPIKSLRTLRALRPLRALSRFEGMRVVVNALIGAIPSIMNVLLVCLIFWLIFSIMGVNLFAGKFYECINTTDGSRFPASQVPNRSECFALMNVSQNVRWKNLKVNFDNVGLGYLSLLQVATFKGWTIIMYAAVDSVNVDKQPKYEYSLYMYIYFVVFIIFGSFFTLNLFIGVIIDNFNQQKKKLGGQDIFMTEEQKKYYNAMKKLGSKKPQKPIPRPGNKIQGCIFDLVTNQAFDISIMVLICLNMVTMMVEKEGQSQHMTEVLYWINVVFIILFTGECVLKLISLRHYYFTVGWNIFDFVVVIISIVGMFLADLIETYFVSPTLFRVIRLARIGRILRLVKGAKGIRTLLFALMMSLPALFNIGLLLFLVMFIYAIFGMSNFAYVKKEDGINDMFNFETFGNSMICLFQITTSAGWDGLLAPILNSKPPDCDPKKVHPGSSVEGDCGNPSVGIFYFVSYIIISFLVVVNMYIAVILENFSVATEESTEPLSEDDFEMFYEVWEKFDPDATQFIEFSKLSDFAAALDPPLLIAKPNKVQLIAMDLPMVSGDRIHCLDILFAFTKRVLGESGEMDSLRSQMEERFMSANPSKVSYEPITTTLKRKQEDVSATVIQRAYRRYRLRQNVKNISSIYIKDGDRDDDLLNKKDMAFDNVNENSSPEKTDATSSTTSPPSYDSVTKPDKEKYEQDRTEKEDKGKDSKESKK

inhibition of Nav 1.7 compared to an 1800 mg dose of gabapentin: > 6 fold
Structure (SMILES): COCCOC(=O)C1=C(C)NC(C)=C(C(=O)OC/C=C/c2ccccc2)C1c1cccc([N+](=O)[O-])c1 (stereo not shown) [cilnidipine]
